{
  "source": "patent US20150023972A1",
  "about": "“COMBINATION PHARMACEUTICAL COMPOSITION AND METHODS OF TREATING AND PREVENTING THE INFECTIOUS DISEASES” (priority 2010, published 2015)",
  "key": {"[1]": {"tested_on": "influenza virus A/California/07/2009swl (H1N1)", "type": "in vivo, mice", "conditions": "10th day after infection; for Survival, % 10LD50: female Balb/c mice, intragastric"}, "[2]": {"tested_on": "influenza virus A/California/07/2009swl (H1N1)", "type": "in vivo, mice", "conditions": "10th day after infection; for Survival, % 10LD50: female Balb/c mice, intragastric", "remark": "listed apart in the source"}, "influenza": {"tested_on": "influenza", "experiment": "open-label comparative controlled clinical study versus Tamiflu in influenza", "type": "in vivo, human"}, "[3]": {"conditions": "Morning Day 1, 37.0° C. and lower"}},
  "note": "Read-outs that look alike come from different tables or passages of the source. Marks after values point to notes of the source that are not given here.",
  "data": [
    {"smiles": "CCOC(=O)C1=C[C@@H](OC(CC)CC)[C@H](NC(C)=O)[C@@H](N)C1", "note": "[Oseltamivir]", "values": [
      {"measurement": "Difference between % of survival in the group that received medication and % of survival in the group that received distilled water", "setting": "[1]; stage 1", "result": "+60%"},
      {"measurement": "Survival, % 10LD50", "setting": "[1]; stage 1", "result": "80* %"},
      {"measurement": "Difference between % of survival in the group that received medication and % of survival in the group that received distilled water", "setting": "[1]; stage 2", "result": "+65%"},
      {"measurement": "Survival, % 10LD50", "setting": "[1]; stage 2", "result": "70* %"},
      {"measurement": "Difference between % of survival in the group that received medication and % of survival in the group that received distilled water", "setting": "[2]; stage 1", "result": "+60%"},
      {"measurement": "Survival, % 10LD50", "setting": "[2]; stage 1", "result": "80* %"},
      {"measurement": "Difference between % of survival in the group that received medication and % of survival in the group that received distilled water", "setting": "[2]; stage 2", "result": "+65%"},
      {"measurement": "Survival, % 10LD50", "setting": "[2]; stage 2", "result": "70* %"},
      {"measurement": "Mean values of body temperature, M ± SD", "setting": "influenza; Evening Day 2", "result": "36.9 ± 0.53", "unit": "°C"},
      {"measurement": "Proportion of patients with normal temperature, %", "setting": "influenza; Evening Day 2", "result": 45.5, "unit": "%"},
      {"measurement": "The number of patients with normal temperature", "setting": "influenza; Evening Day 2", "result": 5},
      {"measurement": "Mean values of body temperature, M ± SD", "setting": "influenza; Evening, Day 1", "result": "37.3 ± 0.71", "unit": "°C"},
      {"measurement": "Proportion of patients with normal temperature, %", "setting": "influenza; Evening, Day 1", "result": 9.1, "unit": "%"},
      {"measurement": "The number of patients with normal temperature", "setting": "influenza; Evening, Day 1", "result": 1},
      {"measurement": "Mean values of body temperature, M ± SD", "setting": "influenza; Evening, Day 3", "result": "36.7 ± 0.46", "unit": "°C"},
      {"measurement": "Proportion of patients with normal temperature, %", "setting": "influenza; Evening, Day 3", "result": 54.5, "unit": "%"},
      {"measurement": "The number of patients with normal temperature", "setting": "influenza; Evening, Day 3", "result": 6},
      {"measurement": "Mean values of body temperature, M ± SD", "setting": "influenza; Evening, Day 4", "result": "36.5 ± 0.38", "unit": "°C"},
      {"measurement": "Proportion of patients with normal temperature, %", "setting": "influenza; Evening, Day 4", "result": 80.0, "unit": "%"},
      {"measurement": "The number of patients with normal temperature", "setting": "influenza; Evening, Day 4", "result": 8},
      {"measurement": "Mean values of body temperature, M ± SD", "setting": "influenza; Evening, Day 5", "result": "36.5 ± 0.21", "unit": "°C"},
      {"measurement": "Proportion of patients with normal temperature, %", "setting": "influenza; Evening, Day 5", "result": 90.0, "unit": "%"},
      {"measurement": "The number of patients with normal temperature", "setting": "influenza; Evening, Day 5", "result": 9},
      {"measurement": "Mean values of body temperature, M ± SD", "setting": "influenza; Evening, Day 6", "result": "36.3 ± 0.19", "unit": "°C"},
      {"measurement": "Proportion of patients with normal temperature, %", "setting": "influenza; Evening, Day 6", "result": 100.0, "unit": "%"},
      {"measurement": "The number of patients with normal temperature", "setting": "influenza; Evening, Day 6", "result": 7},
      {"measurement": "Mean values of body temperature, M ± SD", "setting": "influenza; Evening, Day 7", "result": "36.6 ± 0.12", "unit": "°C"},
      {"measurement": "Proportion of patients with normal temperature, %", "setting": "influenza; Evening, Day 7", "result": 100.0, "unit": "%"},
      {"measurement": "The number of patients with normal temperature", "setting": "influenza; Evening, Day 7", "result": 4},
      {"measurement": "Mean values of body temperature, M ± SD", "setting": "influenza; Morning Day 1", "result": "38.1 ± 0.82", "unit": "°C"},
      {"measurement": "Proportion of patients with normal temperature, %", "setting": "influenza; [3]", "result": 0, "unit": "%"},
      {"measurement": "The number of patients with normal temperature", "setting": "influenza; [3]", "result": 0},
      {"measurement": "Mean values of body temperature, M ± SD", "setting": "influenza; Morning Day 2", "result": "37.3 ± 0.72", "unit": "°C"},
      {"measurement": "Proportion of patients with normal temperature, %", "setting": "influenza; Morning Day 2", "result": 36.4, "unit": "%"},
      {"measurement": "The number of patients with normal temperature", "setting": "influenza; Morning Day 2", "result": 4},
      {"measurement": "Mean values of body temperature, M ± SD", "setting": "influenza; Morning Day 3", "result": "36.9 ± 0.47", "unit": "°C"},
      {"measurement": "Proportion of patients with normal temperature, %", "setting": "influenza; Morning Day 3", "result": 45.5, "unit": "%"},
      {"measurement": "The number of patients with normal temperature", "setting": "influenza; Morning Day 3", "result": 5},
      {"measurement": "Mean values of body temperature, M ± SD", "setting": "influenza; Morning Day 4", "result": "36.8 ± 0.37", "unit": "°C"},
      {"measurement": "Proportion of patients with normal temperature, %", "setting": "influenza; Morning Day 4", "result": 90.9, "unit": "%"},
      {"measurement": "The number of patients with normal temperature", "setting": "influenza; Morning Day 4", "result": 10},
      {"measurement": "Mean values of body temperature, M ± SD", "setting": "influenza; Morning Day 5", "result": "36.7 ± 0.25", "unit": "°C"},
      {"measurement": "Proportion of patients with normal temperature, %", "setting": "influenza; Morning Day 5", "result": 90.0, "unit": "%"},
      {"measurement": "The number of patients with normal temperature", "setting": "influenza; Morning Day 5", "result": 9},
      {"measurement": "Mean values of body temperature, M ± SD", "setting": "influenza; Morning Day 6", "result": "36.6 ± 0.21", "unit": "°C"},
      {"measurement": "Proportion of patients with normal temperature, %", "setting": "influenza; Morning Day 6", "result": 100.0, "unit": "%"},
      {"measurement": "The number of patients with normal temperature", "setting": "influenza; Morning Day 6", "result": 9},
      {"measurement": "Mean values of body temperature, M ± SD", "setting": "influenza; Morning Day 7", "result": "36.5 ± 0.10", "unit": "°C"},
      {"measurement": "Proportion of patients with normal temperature, %", "setting": "influenza; Morning Day 7", "result": 100.0, "unit": "%"},
      {"measurement": "The number of patients with normal temperature", "setting": "influenza; Morning Day 7", "result": 5},
      {"measurement": "Mean values of body temperature, M ± SD", "setting": "influenza; Morning Day 8", "result": "36.5 ± 0.14", "unit": "°C"},
      {"measurement": "Proportion of patients with normal temperature, %", "setting": "influenza; Morning Day 8", "result": 100.0, "unit": "%"},
      {"measurement": "The number of patients with normal temperature", "setting": "influenza; Morning Day 8", "result": 3},
      {"measurement": "mean number of antipyretic intakes", "setting": "influenza; by the morning of Day 4 of the therapy", "result": "7.4±0.90"},
      {"measurement": "Bacterial complications, Otitis, %", "setting": "influenza; influenza", "result": "0/0%"},
      {"measurement": "Bacterial complications, Pneumonia, %", "setting": "influenza; influenza", "result": 9.1, "unit": "%"},
      {"measurement": "Bacterial complications, Total, %", "setting": "influenza; influenza", "result": 27.2, "unit": "%"},
      {"measurement": "Bacterial complications, Tracheitis, %", "setting": "influenza; influenza", "result": 18.2, "unit": "%"}
    ]}
  ]
}
